Read-outs that look alike come from different tables or passages of the source.
Tests used:
[1] = test system: Adjuvant induced arthritis; assay: Adjuvant induced arthritis in the rat (prophylactic effect); format: in vivo, rat (male Wistar)
Experimental: (3) Adjuvant induced arthritis in the rat
The test was performed according to the method described by B. B. Newbould in "British Journal of Pharmacology", vol. 21, 127 (1963).
Male Wistar rats weighing 180 to 210 g were divided into groups of 8 animals each. The arthritic syndrome was induced by an intradermal injection into the right hind paw of 0.1 ml of a suspension of dead tubercle bacilli (6 mg/ml) in liquid paraffin. Swellings in the hind feet were measured with the fluid displacement method at 4, 10, 15, 18, 21 and 28 days after the adjuvant inoculation. Compounds tested were orally administered daily from the adjuvant inoculation day (day 1) to day 20.

peritoneal macrophages = assay: Release (secretion) of lysosomal enzymes from macrophages during phagocytosis; format: cell-based; settings: Rattus norvegicus, Peritoneal macrophage, 0.5 h, serum-treated zymosan, 37° C., 30 minutes
Experimental: (§1) (2) Assay of release of lysosomal enzymes from polymorphonuclear (PMN) leukocytes or macrophages during phagocytosis
Preparation of rat peritoneal macrophages was carried out according to the method described by D. Gemsa et al in "Journal of Clinical Investigation",vol. 52, 812 (1973).
(§2) Lysosomal enzymes were released from PMN leukocytes exposed to homologous serum-treated zymosan particles (0.5-3 μ in diameter, Sigma) according to the method described by M. Nakanishi et al in "Yakugaku Zasshi (Journal of the Pharmaceutical Society of Japan)", vol. 95, 672 (1975).
(§3) The effects of test compounds on the enzyme release were studied by determining the release of lysosomal marker enzymes such as aryl sulfatase.
(§4) The test compounds were dissolved in ethanol. The test solution (10 μl) or solvent (control, 10 μl) was added to a 10-ml conical flask containing 2.0 ml of the PMN leukocyte or macrophage suspension. The mixture was kept at 25° C. for 10 minutes. Immediately after the addition of 50 μl of serum-treated zymosan particles (10 mg/ml) to the above mixture, 1.0-ml aliquots were removed to determine the initial activity of free enzymes in the supernatant. The residual mixtures were incubated at 37° C. for 30 minutes with shaking at an agitation cycle of 75/min, and centrifuged at 350 g for 10 minutes at 4° C. The supernatant thus obtained was used for the measurement of the marker enzymes released from PMN leukocytes or macrophages during phagocytosis. The total activity of these enzymes was assayed using the 27,000 g supernatant obtained by centrifuging the PMN leukocytes or macrophages incubated at 37° C. for 30 minutes in 0.2% (v/v) Triton X-100 - Hanks' solution.

[2] = test system: polymorphonuclear (PMN) leukocytes; assay: Release (secretion) of lysosomal enzymes from PMN leukocytes during phagocytosis; format: cell-based; settings: Rattus norvegicus, 0.5 h, serum-treated zymosan, 37° C., 30 minutes
Experimental: as §1
Preparation of rat PMN leukocytes was carried out according to the method described by M. Nakanishi et al in "Yakugaku Zasshi (Journal of the Pharmaceutical Society of Japan)", vol. 95, 1027 (1975).
as §2, §3, §4

Leukocyte migration = Leukocyte migration in the rat (CMC pouch); format: in vivo, rat (male Donryu); settings: compound administered into the CMC pouch; for Leukocyte Migration ED50, 5 hr: 5 hr after CMC injection; for Leukocyte Migration ED50, 7 hr: 7 hr after CMC injection
Experimental: (1) Leukocyte migration in the rat
The test was performed according to the method described by H. Ishikawa et al in "Yakugaku Zasshi (Journal of the Pharmaceutical Society of Japan)", vol.
Male Donryu rats weighing about 150 g were divided into groups of 4 to 5 animals each. Five ml of 2% suspension of carboxymethylcellulose (CMC) in physiological saline, which was treated by autoclaving at 120° C. for 15 minutes, was injected subcutaneously in the supra-scapular area. Five and 7 hours later, 0.1 ml of fluid in the CMC pouch was collected and mixed with 3 ml of 0.02% brilliant cresyl blue solution in phosphate buffer (0.002M, pH 7.0). The suspension was put in a Burker chamber and the emigrating leukocytes were counted under a microscope (magnification 400x). The percent inhibition was calculated as compared with the count in the control group. Compounds tested were administered into the CMC pouch immediately after the injection of the CMC suspension.

[3] = po, read-out: Prophylactic Effect on Adjuvant Arthritis MED (minimum effective dose)
[4] = read-out: Secretion of Lysosomal Enzyme IC20, Macrophage, Macrophage
[5] = Leukocyte, read-out: Secretion of Lysosomal Enzyme IC20, PMN leukocyte, PMN leukocyte
[6] = oral, daily from day 1 to day 20, read-out: Prophylactic Effect on Adjuvant Arthritis MED (minimum effective dose)
[7] = Macrophage, read-out: Secretion of Lysosomal Enzyme IC20, Macrophage
[8] = PMN leukocyte, read-out: Secretion of Lysosomal Enzyme IC20, PMN leukocyte

CC(=O)Oc1ccccc1C(=O)O [AcetylsalicylicAcid, Acetylsalicylic Acid, reference compound]
minimal effective dose [1, 3]: 100 mg/kg
IC20 (peritoneal macrophages; [4]): 100000 nM
IC20 [2, 5]: 100 nM
Leukocyte Migration ED50, 5 hr (Leukocyte migration): 20 mg/rat
Leukocyte Migration ED50, 7 hr (Leukocyte migration): > 25 mg/rat

CC(C)(S)[C@@H](N)C(=O)O [D-Penicillamine, D-penicillamine, reference compound]
minimal effective dose [1, 3]: > 200 mg/kg
IC20 (peritoneal macrophages; [4]): 1000 nM
IC20 [2, 5]: 10000 nM
Leukocyte Migration ED50, 5 hr (Leukocyte migration): > 40 mg/rat
Leukocyte Migration ED50, 7 hr (Leukocyte migration): > 40 mg/rat

CC1(C)SC(=S)N(Cc2ccccc2)C(=O)C1NC(=O)c1ccc(Cl)cc1 (stereo not shown) [Test Compound A, 3-benzyl-5-(p-chlorobenzamido)-6,6-dimethyl-2-thioxo-tetrahydro-2H-1,3-thiazin-4-one]
minimal effective dose [1, 6]: 50 mg/kg
IC20 (peritoneal macrophages; [7]): > 10000 nM
IC20 [2, 8]: 200 nM
Leukocyte Migration ED50, 5 hr (Leukocyte migration): 15 mg/rat
Leukocyte Migration ED50, 7 hr (Leukocyte migration): 15 mg/rat

CN(C)CCN1C(=O)C(NC(=O)c2ccc(Cl)cc2)C(C)(C)SC1=S (stereo not shown) [Test Compound B, 5-(p-Chlorobenzamido)-3-(2-dimethylaminoethyl)-6,6-dimethyl-2-thioxotetrahydro-2H-1,3-thiazin-4-one]
minimal effective dose [1, 6]: 25 mg/kg
IC20 (peritoneal macrophages; [7]): 200 nM
IC20 [2, 8]: 500 nM
Leukocyte Migration ED50, 5 hr (Leukocyte migration): 2 mg/rat
Leukocyte Migration ED50, 7 hr (Leukocyte migration): 2 mg/rat

CN(C)CCN1C(=O)C(NC(=O)c2ccc(Cl)cc2)C(C)(C)SC1=S.Cc1ccc(S(=O)(=O)O)cc1 (stereo not shown) [Test Compound C, 5-(p-Chlorobenzamido)-3-(2-dimethylaminoethyl)-6,6-dimethyl-2-thioxotetrahydro-2H-1,3-thiazin-4-one p-toluenesulfonate]
IC20 (peritoneal macrophages; [4]): 100 nM
IC20 [2, 5]: 1000 nM
Leukocyte Migration ED50, 5 hr (Leukocyte migration): 3.5 mg/rat
Leukocyte Migration ED50, 7 hr (Leukocyte migration): 5 mg/rat

CN(C)CCN1C(=O)C(NC(=O)c2ccc(NS(C)(=O)=O)cc2)C(C)(C)SC1=S.Cc1ccc(S(=O)(=O)O)cc1 (stereo not shown) [Test Compound D, 3-(2-dimethylaminoethyl)-5-(p-methanesulfonamidobenzamido)-6,6-dimethyl-2-thioxo-tetrahydro-2H-1,3-thiazin-4-one p-toluenesulfonate]
minimal effective dose [1, 3]: 10 mg/kg
IC20 (peritoneal macrophages; [4]): 500 nM
IC20 [2, 5]: 300 nM
Leukocyte Migration ED50, 5 hr (Leukocyte migration): 2 mg/rat
Leukocyte Migration ED50, 7 hr (Leukocyte migration): 5 mg/rat

CN(C)CCNC(=S)SC(C)(C)C(NC(=O)c1ccc(Cl)cc1)C(=O)O (stereo not drawn) [Test Compound E, n-(p-Chlorobenzoyl)-S-(2-dimethylaminoethylthiocarbamoyl)-penicillamine]
minimal effective dose [1, 6]: 10 mg/kg
IC20 (peritoneal macrophages; [7]): 100 nM
IC20 [2, 8]: 1000 nM
Leukocyte Migration ED50, 5 hr (Leukocyte migration): 2.7 mg/rat
Leukocyte Migration ED50, 7 hr (Leukocyte migration): 3.6 mg/rat
